Reference: patent US11466006B2, “Dual selective PI3 delta and gamma kinase inhibitors” (Rhizen Pharmaceuticals SA, priority 2013, dated 2022)

Key:
PI3Kδ = PI3Kδ (Homo sapiens, UniProt O00329); test: Anti-FcεR1 induced CD63 expression in basophils from human whole blood; format: cell-based; design: Add 49 μl of patient's whole blood to each tube; endogenous in cells; host or cells: basophils in human whole blood; settings: n=10, read-out: EC50 for FcεR1 (PI3K δ), CD63 positive basophils
Description: (§1) PI3K δ and γ signalling in basophils manifested by an alteration of anti-FcεR1 or fMLP induced CD63 expression is a useful pharmacodynamic marker determined using the Flow2CAST® kit (Buhlmann Laboratories, Switzerland). Briefly, it involves the following steps: • Mix the anti-coagulated blood sample by inverting the venipuncture tube several times; • Prepare fresh and pyrogen-free 3.5 ml polypropylene or polystyrene tubes suitable for Flow Cytometry measurements; • Add 49 μl of patient's whole blood to each tube; • Add 1 μl of 10% DMSO (background) or compound (10% DMSO) to the assigned tubes and mix gently. Incubate at room temperature for 15 minutes; • Pipet 50 μl of the Stimulation buffer (background) or anti-FcεRI Ab or or fMLP to each tube; • Add 100 μl of Stimulation Buffer to each tube; • Mix gently. Add 20 μl Staining Reagent (1:1 mix of FITC-CD63 and PE-CCR3) to each tube; • Mix gently, cover the tubes and incubate for 15 minutes at 37° C. in a water bath. […]
(§2) Percent CD63 positive cells within the gated basophil population were determined in different treatment groups and normalized to vehicle control.

TNF-α = test: Lipopolysaccharide induced TNF-α production; format: in vivo, rat
Description: Fasted female wistar rats were randomized into different groups depending on their body weights. Test compound (Compound A1) was prepared as a suspension in a vehicle consisting of 0.5% methylcellulose. The compound or vehicle was administered by oral gavage in a volume of 10 mL/kg. LPS solution was administered intraperitoneally one hour after compound administration at a dose of 0.3 mg/kg. Blood was collected in serum separator tubes via cardiac puncture ninety minutes after LPS injection. Serum was separated and stored at −20° C. and will be analysed for TNFα by ELISA.

male Balb/c mice = test: Acute cigarette smoke induced cell infiltration in male Balb/c mice; format: in vivo, mouse; settings: 0.3, 1, or 3 mg/kg/BID, cigarette smoke exposed mice
Description: Animals (male Balb/c mice) are to be acclimatized for seven days prior to the start of the experiment. Animals are then to be randomly distributed to various groups based on their body weights. On day 1, mice is to be administered test compound or vehicle by oral/intranasal route and after 1 hr test compound administration animals are to be placed in whole body exposure box. On day 1 and d2 mice are exposed to the mainstream smoke of 6 cigarettes and of 8 cigarettes on day 3, and of 10 cigarettes on day 4. […] The total number of white blood cells is to be determined in BAL fluid and blood using a blood cell counter and adjusted to 1×10^6 cell/ml. Differential cell count is calculated manually. […] The number of each cell type among 300 white blood cells in the cell smear are to be determined and expressed as a percentage, and the number of neutrophils and macrophages in each BAL fluid are to be calculated. • Results: As depicted in FIGS. 7A and 7B, Compound A1 reduced macrophages and neutrophil infiltration into BALF thereby indicating a therapeutic role in chronic obstructive pulmonary diseases Assay 16: Ovalbumin-Induced Nasal Eosinophil and Neutrophil Accumulation in Mice

PI3K beta = biological target: T1, PI3K beta (Mus musculus, UniProt Q8BTI9); test: LPA induced AktS473 phosphorylation in 3T3 fibroblasts (PI3Kβ selectivity); format: cell-based; settings: read-out: Cellular IC50 PI3K beta (LPA induced pAKT in 3T3 fibroblasts)
T1 construct: 3T3 cells were treated with desired concentrations of the test compound for 15 min; endogenous in cells; host or cells: 3T3 fibroblasts

Pi3K γ = Pi3K γ (Homo sapiens, UniProt P48736); test: fMLP induced CD63 expression in basophils from human whole blood; format: cell-based; settings: n=10, read-out: IC50 for fMLP (PI3K γ), CD63 positive basophils
Description: as §1, §2

pAKT = test: Inhibition of AKT phosphorylation in leukemic cell lines (Western blot); format: cell-based; settings: MOLT-4, Jurkat, CCRF-CEM, Hut-78 & HuT-102; 48 h; read-out: EC50, reduction in pAKT expression
Description: MOLT-4, Jurkat, CCRF-CEM, Hut-78, HuT-102, Sez4 and HH cells were incubated with desired concentrations of compound for 48 h. Cells were lysed and pAKT determined by Western Blotting. Bands were quantified using ImageJ and normalized to actin.

T1 sequence (Q8BTI9 whole entry): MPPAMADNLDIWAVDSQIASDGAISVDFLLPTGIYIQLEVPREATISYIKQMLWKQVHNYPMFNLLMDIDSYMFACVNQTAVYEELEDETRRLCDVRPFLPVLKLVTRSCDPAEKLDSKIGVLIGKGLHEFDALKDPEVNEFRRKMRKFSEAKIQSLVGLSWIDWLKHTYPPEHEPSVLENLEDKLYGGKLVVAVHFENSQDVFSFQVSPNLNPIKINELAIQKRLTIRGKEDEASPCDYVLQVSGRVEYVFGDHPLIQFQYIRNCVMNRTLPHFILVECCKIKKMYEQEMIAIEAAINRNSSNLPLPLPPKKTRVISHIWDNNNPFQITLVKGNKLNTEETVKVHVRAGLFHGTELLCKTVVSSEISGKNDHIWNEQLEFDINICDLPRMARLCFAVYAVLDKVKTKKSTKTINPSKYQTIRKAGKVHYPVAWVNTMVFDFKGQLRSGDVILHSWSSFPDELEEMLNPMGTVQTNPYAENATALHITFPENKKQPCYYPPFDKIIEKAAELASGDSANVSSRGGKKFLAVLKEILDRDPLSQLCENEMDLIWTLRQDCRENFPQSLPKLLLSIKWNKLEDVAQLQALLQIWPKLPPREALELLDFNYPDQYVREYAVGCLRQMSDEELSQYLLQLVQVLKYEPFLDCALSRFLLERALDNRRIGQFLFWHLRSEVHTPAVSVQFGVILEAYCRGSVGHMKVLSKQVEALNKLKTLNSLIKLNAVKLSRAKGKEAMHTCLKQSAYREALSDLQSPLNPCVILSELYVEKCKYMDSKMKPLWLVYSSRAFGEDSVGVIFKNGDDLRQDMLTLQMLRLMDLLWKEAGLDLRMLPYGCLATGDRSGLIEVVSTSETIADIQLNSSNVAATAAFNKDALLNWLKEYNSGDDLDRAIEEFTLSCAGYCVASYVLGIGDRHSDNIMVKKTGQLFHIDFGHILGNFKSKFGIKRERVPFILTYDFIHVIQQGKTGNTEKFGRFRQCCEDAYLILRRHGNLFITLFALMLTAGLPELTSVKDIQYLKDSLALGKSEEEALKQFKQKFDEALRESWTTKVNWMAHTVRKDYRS
T1 sequence (P26450 whole entry partner): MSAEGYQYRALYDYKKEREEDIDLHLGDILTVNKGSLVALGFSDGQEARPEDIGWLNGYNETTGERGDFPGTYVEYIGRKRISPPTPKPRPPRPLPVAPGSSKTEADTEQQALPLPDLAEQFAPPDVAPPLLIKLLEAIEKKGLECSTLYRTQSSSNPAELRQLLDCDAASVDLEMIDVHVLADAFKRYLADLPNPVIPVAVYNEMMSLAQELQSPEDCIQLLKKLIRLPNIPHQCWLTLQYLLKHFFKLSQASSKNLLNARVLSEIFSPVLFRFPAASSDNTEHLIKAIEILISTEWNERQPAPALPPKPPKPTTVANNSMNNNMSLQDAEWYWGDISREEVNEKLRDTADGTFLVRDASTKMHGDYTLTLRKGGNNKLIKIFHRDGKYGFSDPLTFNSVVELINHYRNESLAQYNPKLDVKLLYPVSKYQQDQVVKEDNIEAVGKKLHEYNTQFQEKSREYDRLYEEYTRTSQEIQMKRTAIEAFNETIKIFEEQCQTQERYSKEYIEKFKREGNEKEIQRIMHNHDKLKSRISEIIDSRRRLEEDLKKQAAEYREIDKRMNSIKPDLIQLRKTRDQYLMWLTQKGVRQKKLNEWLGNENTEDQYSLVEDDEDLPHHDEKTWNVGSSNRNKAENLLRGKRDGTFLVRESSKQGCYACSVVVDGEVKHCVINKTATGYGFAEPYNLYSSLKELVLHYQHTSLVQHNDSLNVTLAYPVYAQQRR
Chain of PI3Kδ (O00329 whole entry): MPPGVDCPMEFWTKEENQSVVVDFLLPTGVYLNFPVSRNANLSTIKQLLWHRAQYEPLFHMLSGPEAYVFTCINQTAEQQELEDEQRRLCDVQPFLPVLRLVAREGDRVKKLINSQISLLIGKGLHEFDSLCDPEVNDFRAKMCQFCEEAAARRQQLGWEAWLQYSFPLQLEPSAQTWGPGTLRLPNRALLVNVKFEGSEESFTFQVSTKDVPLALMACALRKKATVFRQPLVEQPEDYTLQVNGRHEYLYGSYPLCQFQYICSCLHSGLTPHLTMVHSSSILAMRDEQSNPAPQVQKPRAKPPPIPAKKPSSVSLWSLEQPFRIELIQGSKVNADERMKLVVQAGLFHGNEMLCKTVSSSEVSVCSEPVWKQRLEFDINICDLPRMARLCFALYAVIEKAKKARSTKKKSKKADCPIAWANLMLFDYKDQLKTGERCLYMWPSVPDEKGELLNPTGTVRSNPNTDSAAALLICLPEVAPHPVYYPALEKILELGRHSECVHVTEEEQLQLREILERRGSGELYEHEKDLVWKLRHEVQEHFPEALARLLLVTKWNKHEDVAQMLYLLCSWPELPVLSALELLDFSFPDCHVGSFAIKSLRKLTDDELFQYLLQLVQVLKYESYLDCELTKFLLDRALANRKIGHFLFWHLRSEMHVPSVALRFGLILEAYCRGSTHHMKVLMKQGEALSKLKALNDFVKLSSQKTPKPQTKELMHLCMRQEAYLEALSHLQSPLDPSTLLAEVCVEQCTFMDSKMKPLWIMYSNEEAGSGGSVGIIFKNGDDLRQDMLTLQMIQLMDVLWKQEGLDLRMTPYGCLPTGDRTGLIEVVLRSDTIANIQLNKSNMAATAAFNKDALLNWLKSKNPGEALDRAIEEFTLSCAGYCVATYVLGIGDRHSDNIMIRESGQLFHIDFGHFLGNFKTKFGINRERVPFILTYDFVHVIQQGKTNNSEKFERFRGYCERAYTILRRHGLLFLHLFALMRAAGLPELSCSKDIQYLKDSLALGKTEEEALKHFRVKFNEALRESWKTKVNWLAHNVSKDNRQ
Chain of PI3Kδ (P27986 whole entry partner): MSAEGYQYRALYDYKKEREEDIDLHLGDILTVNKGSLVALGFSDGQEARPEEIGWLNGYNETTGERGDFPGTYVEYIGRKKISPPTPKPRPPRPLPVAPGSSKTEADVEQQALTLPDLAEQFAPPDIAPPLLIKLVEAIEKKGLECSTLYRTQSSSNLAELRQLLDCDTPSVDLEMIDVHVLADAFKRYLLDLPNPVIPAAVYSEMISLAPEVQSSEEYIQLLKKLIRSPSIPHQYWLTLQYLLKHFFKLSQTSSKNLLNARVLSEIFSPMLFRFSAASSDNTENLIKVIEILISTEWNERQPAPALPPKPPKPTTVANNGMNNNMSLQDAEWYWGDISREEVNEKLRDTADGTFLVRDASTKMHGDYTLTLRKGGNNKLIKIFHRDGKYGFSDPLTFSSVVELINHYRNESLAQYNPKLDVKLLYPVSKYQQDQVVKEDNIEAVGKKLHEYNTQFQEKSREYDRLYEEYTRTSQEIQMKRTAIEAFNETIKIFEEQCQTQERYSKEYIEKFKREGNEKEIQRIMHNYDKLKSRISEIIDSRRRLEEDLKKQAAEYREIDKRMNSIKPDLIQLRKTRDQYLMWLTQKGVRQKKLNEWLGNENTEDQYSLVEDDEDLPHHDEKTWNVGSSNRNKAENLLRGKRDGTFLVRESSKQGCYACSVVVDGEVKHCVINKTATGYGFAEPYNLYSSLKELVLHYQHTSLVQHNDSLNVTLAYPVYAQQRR
Chain of Pi3K γ (P48736 whole entry): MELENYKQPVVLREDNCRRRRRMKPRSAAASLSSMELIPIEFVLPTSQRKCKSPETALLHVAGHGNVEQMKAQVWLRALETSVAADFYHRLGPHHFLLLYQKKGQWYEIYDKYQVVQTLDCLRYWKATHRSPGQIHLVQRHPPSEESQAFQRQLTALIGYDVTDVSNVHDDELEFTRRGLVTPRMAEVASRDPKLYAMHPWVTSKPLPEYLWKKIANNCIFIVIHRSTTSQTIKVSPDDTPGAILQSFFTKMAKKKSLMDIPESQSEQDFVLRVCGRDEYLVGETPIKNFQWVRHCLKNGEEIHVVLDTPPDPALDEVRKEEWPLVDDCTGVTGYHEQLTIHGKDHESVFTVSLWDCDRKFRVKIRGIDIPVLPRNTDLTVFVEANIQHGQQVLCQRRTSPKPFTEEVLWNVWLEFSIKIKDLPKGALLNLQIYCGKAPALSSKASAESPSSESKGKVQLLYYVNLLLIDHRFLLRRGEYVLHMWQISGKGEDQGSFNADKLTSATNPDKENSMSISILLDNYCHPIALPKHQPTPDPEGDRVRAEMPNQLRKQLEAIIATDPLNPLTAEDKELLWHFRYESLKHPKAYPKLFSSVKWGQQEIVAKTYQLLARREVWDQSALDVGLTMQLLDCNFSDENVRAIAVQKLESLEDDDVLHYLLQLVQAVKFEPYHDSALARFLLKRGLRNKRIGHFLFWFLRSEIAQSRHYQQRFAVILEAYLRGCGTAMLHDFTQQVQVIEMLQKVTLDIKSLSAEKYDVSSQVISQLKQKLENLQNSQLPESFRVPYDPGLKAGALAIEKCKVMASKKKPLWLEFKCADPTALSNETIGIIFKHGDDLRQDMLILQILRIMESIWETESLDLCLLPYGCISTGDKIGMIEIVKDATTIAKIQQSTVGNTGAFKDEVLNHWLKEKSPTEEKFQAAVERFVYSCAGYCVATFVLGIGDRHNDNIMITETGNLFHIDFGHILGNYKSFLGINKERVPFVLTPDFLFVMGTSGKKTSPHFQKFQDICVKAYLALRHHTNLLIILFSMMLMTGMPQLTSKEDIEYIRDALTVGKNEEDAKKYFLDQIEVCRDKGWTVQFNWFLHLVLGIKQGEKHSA

- EC50 (PI3Kδ): < 40 nM
- IC50 (PI3K beta): 2070 nM
- IC50 (Pi3K γ): < 40 nM
- EC50 (pAKT): 500 to 2000 nM
SMILES: CC[C@H](Nc1ncnc2[nH]cnc12)c1oc2ccccc2c(=O)c1-c1cccc(F)c1 [Compound A1, (S)-2-(1-(9H-purin-6-ylamino)propyl)-3-(3-fluorophenyl)-4H-chromen-4-one]
- percent inhibition of plasma TNFα (TNF-α; 1 mg/kg po): 5%
- percent inhibition of plasma TNFα (TNF-α; 3 mg/kg po): 15%
- percent inhibition of plasma TNFα (TNF-α; 10 mg/kg po): 40%
- macrophages and neutrophil infiltration into BALF (male Balb/c mice): reduced
